32 compounds from patent US20090264415A2 (priority 2004, published 2009) can be followed below.

In one experiment the test system is peripheral blood mononuclear cells (PBMC) stimulated with allogeneic PBMC or EBV-transformed human B cells (RPMI1788). Put plainly: Mixed lymphocyte reaction (MLR) assay. The following applies: 50% suppression of the MLR, [3H]-thymidine incorporation; read-out: MLR. In kind it is cell-based. The method in brief: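 Responder PBMC co-cultured in triplicate with 30 Gy-irradiated allogeneic PBMC or RPMI1788 B cells plus compound (DMSO stock 10 mM, diluted in medium). After 5 days at 37° C, 1 μCi [3H]-thymidine added for 16 h more; incorporated cpm counted and proliferation inhibition calculated.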
`COc1ccc(-c2ccc3nc(OCCOc4ccccc4)nc(N4CCN(C(=O)Nc5cccc(C)c5)CC4)c3n2)cc1OC` [Example 18]: the IC50 is 900 nM.

Still in this experiment, the particulars now being: Homo sapiens, RPMI-1788; 50% suppression of the MLR, [3H]-thymidine incorporation; read-out: MLR.
With `Nc1nc(N2CCOCC2)c2nc(-c3ccc(F)c(Cl)c3)ccc2n1` [Example 242, 2-amino-4-morpholino-6-(3-chloro-4-fluorophenyl)-pyrido[3,2-d]pyrimidine], the IC50 is 2600 nM.

For the compound `COc1cc(-c2ccc3nc(N)nc(N)c3n2)ccc1O` [Example 93, 2,4-diamino-6-(4-hydroxy-3-methoxyphenyl)-pyrido[3,2-d]pyrimidine], the IC50 is 5100 nM.

The experiment is the same for the next values; noted with them: Homo sapiens, RPMI-1788; MLR assay of example 319; read-out: MLR IC50.
Regarding `Cc1ccc(-c2ccc3nc(N)nc(N4CCN(C(=O)COc5ccc(Cl)cc5)CC4)c3n2)cc1C` [Example 516, 2-amino-4-[N-(4-chlorophenoxyacetyl)-piperazin-1-yl]-6-(3,4-dimethyl-phenyl)-pyrido(3,2-d)pyrimidine], the IC50 was determined as 56 nM.

Consider `Nc1nc(N2CCN(C(=O)CCOc3ccc(Cl)cc3)CC2)c2nc(-c3ccc(F)cc3)ccc2n1` [Example 473, 2-amino-4-{4-[3-(4-chlorophenoxy)propionyl]-piperazin-1-yl}-6-(4-fluorophenyl)-pyrido[3,2-d]pyrimidine], for which the IC50 came out at 500 nM.

As for `Nc1nc(N2CCN(C(=O)COc3ccc(Cl)cc3)CC2)c2nc(-c3ccccc3F)ccc2n1` [Example 424, 2-amino-4-[4-(4-chlorophenoxyacetyl)piperazin-1-yl]-6-(2-fluorophenyl)pyrido-[3,2-d]pyrimidine], the IC50 amounted to 110 nM.

As for `Nc1nc(N2CCN(C(=O)COc3ccc(Cl)cc3)CC2)c2nc(-c3ccc(C(=O)O)s3)ccc2n1` [Example 413, 2-amino-4-[4-(4-chlorophenoxyacetyl)piperazin-1-yl]-6-(2-carboxythiophen-5-yl)pyrido-[3,2-d]pyrimidine], the IC50 was more than 10000 nM.

For `N#Cc1cccc(-c2ccc3nc(N)nc(N4CCN(C(=O)COc5ccc(Cl)cc5)CC4)c3n2)c1` [Example 414, 2-amino-4-[4-(4-chlorophenoxyacetyl)piperazin-1-yl]-6-(3-cyanophenyl)pyrido-[3,2-d]pyrimidine], the IC50 came to 20 nM.

Take `CC(Oc1ccccc1)C(=O)N1CCN(c2nc(N)nc3ccc(-c4ccc(F)cc4)nc23)CC1` (centres unmarked) [Example 474, 2-amino-4-[4-(2-phenoxypropionyl)piperazin-1-yl]-6-(4-fluorophenyl)-pyrido[3,2-d]pyrimidine]: the IC50 turned out to be 1000 nM.

On to `CC(C)(C)OC(=O)N1CCC(Nc2nc(N)nc3ccc(-c4ccc(F)cc4)nc23)CC1` [Example 461, 2-amino-4-[1-(tert-butoxycarbonyl)piperid-4-ylamino]-6-(4-fluorophenyl)-pyrido[3,2-d]pyrimidine], for which the IC50 stood at 4000 nM.

As to `CN(C)C(=O)N1CCN(c2nc(N)nc3ccc(-c4ccc(F)cc4)nc23)CC1` [Example 464, 2-amino-4-[4-(dimethylcarbamoyl)piperazin-1-yl]-6-(4-fluorophenyl)-pyrido[3,2-d]pyrimidine], the IC50 worked out at 800 nM.

With `C[C@@H]1CN(C(=O)COc2ccc(Cl)cc2)CCN1c1nc(N)nc2ccc(-c3ccc(F)cc3)nc12` [Example 482, (R)-2-amino-4-[4-(4-chlorophenoxyacetyl)-2-methylpiperazin-1-yl]-6-(4-fluorophenyl)-pyrido[3,2-d]pyrimidine], the IC50 stood at 500 nM.

`Nc1nc(N2CCN(C(=O)COc3ccc(Cl)cc3)CC2)c2nc(-c3ccoc3)ccc2n1` [Example 402, 2-amino-4-[4-(4-chlorophenoxyacetyl)piperazin-1-yl]-6-(furan-3-yl)pyrido-[3,2-d]pyrimidine]: the IC50 turned out to be 30 nM.

On to `C[C@@H]1CN(C(=O)c2ccccc2)CCN1c1nc(N)nc2ccc(-c3ccc(F)cc3)nc12` [Example 487, (R)-2-amino-4-(4-benzoyl-2-methylpiperazin-1-yl)-6-(4-fluorophenyl)-pyrido[3,2-d]pyrimidine], for which the IC50 amounted to 7500 nM.

On to `Cc1csc(-c2ccc3nc(N)nc(N4CCN(C(=O)COc5ccc(Cl)cc5)CC4)c3n2)c1` [Example 511, 2-amino-4-[N-(4-chlorophenoxyacetyl)-piperazin-1-yl]-6-(4-methyl-2-thienyl)-pyrido(3,2-d)pyrimidine], for which the IC50 amounted to 54 nM.

As to `CNC(=O)N1CCN(c2nc(N)nc3ccc(-c4ccc(F)cc4)nc23)CC1` [Example 452, 2-amino-4-[4-(N-methylcarbamoyl)-piperazin-1-yl]-6-(4-fluorophenyl)-pyrido[3,2-d]pyrimidine], the IC50 was determined as 400 nM.

Regarding `Nc1nc(N2CCN(C(=O)COc3ccc(Cl)cc3)CC2)c2nc(-c3cccnc3)ccc2n1` [Example 409, 2-amino-4-[4-(4-chlorophenoxyacetyl)piperazin-1-yl]-6-(pyridin-3-yl)pyrido-[3,2-d]pyrimidine], the IC50 came out at 5 nM.

On to `Cc1cc(-c2ccc3nc(N)nc(N4CCN(C(=O)COc5ccc(Cl)cc5)CC4)c3n2)ccc1F` [Example 420, 2-amino-4-[4-(4-chlorophenoxyacetyl)piperazin-1-yl]-6-(4-fluoro-3-methylphenyl)-pyrido-[3,2-d]pyrimidine], for which the IC50 came to 300 nM.

As for `CCOc1ccc(-c2ccc3ncnc(N4CCN(C(=O)Nc5cccc(C)c5)CC4)c3n2)cc1F` [Example 559, 4-[(3-methylphenylcarbamoyl)-piperazin-1-yl]-6-(3-fluoro-4-ethoxyphenyl)pyrido[3,2-d]pyrimidine], the IC50 was 178 nM.

`Cc1cccc(NC(=O)N[C@@H]2CCN(c3nc(N)nc4ccc(-c5ccc(F)cc5)nc34)C2)c1` [Example 579]: the IC50 is more than 10000 nM.

With `CSc1ccc(-c2ccc3nc(N)nc(N4CCN(C(=O)COc5ccc(Cl)cc5)CC4)c3n2)cc1` [Example 495, 2-amino-4-[N-(4-chlorophenoxyacetyl)-piperazin-1-yl]-6-(4-methylthiophenyl)-pyrido(3,2-d)pyrimidine], the IC50 worked out at 22 nM.

For the compound `Nc1nc(N2CCN(C(=O)COc3ccc(Cl)cc3)CC2)c2nc(-c3ccc(Cl)cc3)ccc2n1` [Example 405, 2-amino-4-[4-(4-chlorophenoxyacetyl)piperazin-1-yl]-6-(4-chlorophenyl)pyrido-[3,2-d]pyrimidine], the IC50 was determined as 50 nM.

`Nc1nc(N2CCN(C(=O)COc3cccc(Cl)c3)CC2)c2nc(-c3ccc(F)cc3)ccc2n1` [Example 385, 2-amino-4-[4-(3-chlorophenoxyacetyl)piperazin-1-yl]-6-(4-fluorophenyl)-pyrido[3,2-d]pyrimidine]: the IC50 came out at 90 nM.

As for `Cc1cccc(NC(=O)N2CCN(c3ncnc4ccc(-c5ccc(F)cc5)nc34)CC2)c1` [Example 558, 4-[(3-methylphenylcarbamoyl)-piperazin-1-yl]-6-(4-fluorophenyl)pyrido[3,2-d]pyrimidine], the IC50 is 39 nM.

`Nc1nc(N2CCN(C(=O)COc3ccc(Cl)cc3)CC2)c2nc(-c3cccc(F)c3)ccc2n1` [Example 401, 2-amino-4-[4-(4-chlorophenoxyacetyl)piperazin-1-yl]-6-(3-fluorophenyl)pyrido-[3,2-d]pyrimidine]: the IC50 stood at 300 nM.

As to `Nc1nc(N2CCN(C(=O)COc3ccc(F)cc3)CC2)c2nc(-c3ccc(F)cc3)ccc2n1` [Example 387, 2-amino-4-[4-(4-fluorophenoxyacetyl)piperazin-1-yl]-6-(4-fluorophenyl)-pyrido[3,2-d]pyrimidine], the IC50 amounted to 200 nM.

Turning to `Cc1cccc(NC(=O)N2CCN(c3nc(N)nc4ccc(-c5ccccc5C#N)nc34)CC2)c1` [Example 546, 2-amino-4-[(3-methylphenylcarbamoyl)-piperazin-1-yl]-6-(2-cyano-phenyl)-pyrido[3,2-d]pyrimidine], the IC50 worked out at 4 nM.

With `Cc1cccc(NC(=O)N2CCN(c3nc(N)nc4ccc(-c5ccc(C#N)cc5)nc34)CC2)c1` [Example 543, 2-amino-4-[(3-methylphenylcarbamoyl)-piperazin-1-yl]-6-(4-cyano-phenyl)-pyrido[3,2-d]pyrimidine], the IC50 was 30 nM.

`Nc1nc(N2CCN(C(=O)COc3ccc(Cl)cc3)CC2)c2nc(-c3ccc4[nH]ccc4c3)ccc2n1` [Example 412, 2-amino-4-[4-(4-chlorophenoxyacetyl)piperazin-1-yl]-6-(indol-5-yl)pyrido-[3,2-d]pyrimidine]: the IC50 is 39 nM.

`C[C@H]1CN(C(=O)COc2ccc(Cl)cc2)CCN1c1nc(N)nc2ccc(-c3ccc(F)cc3)nc12` [Example 489, (S)-2-amino-4-[4-(4-chlorophenoxyacetyl)-2-methylpiperazin-1-yl]-6-(4-fluorophenyl)-pyrido[3,2-d]pyrimidine]: the IC50 was found to be 5 nM.

`Nc1nc(N2CCN(C(=O)COc3ccc(Cl)cc3)CC2)c2nc(-c3ccc(C(F)(F)F)cc3)ccc2n1` [Example 399, 2-amino-4-[4-(4-chlorophenoxyacetyl)piperazin-1-yl]-6-(4-trifluoromethylphenyl)-pyrido[3,2-d]pyrimidine]: the IC50 came out at 500 nM.

Take `CCNC(=O)N1CCN(c2nc(N)nc3ccc(-c4ccc(F)cc4)nc23)CC1` [Example 450, 2-amino-4-[4-(N-ethylcarbamoyl)-piperazin-1-yl]-6-(4-fluorophenyl)-pyrido[3,2-c]pyrimidine]: the IC50 was determined as 500 nM.
